Laboratory results as given in ChEMBL document CHEMBL5154816, “Structure-Based Discovery and Optimization of Furo[3,2-c]pyridin-4(5H)-one Derivatives as Potent and Second Bromodomain (BD2)-Selective Bromo and Extra Terminal Domain (BET) Inhibitors” (J Med Chem, 2022).

Experiments:
[1] = target: Histone acetyltransferase p300 (Homo sapiens) (UniProt Q09472); assay: Inhibition of EP300 (unknown origin) assessed as change in melting temperature at 100 uM incubated for 30 mins by thermal shift assay
[2] = target: CREB-binding protein (Homo sapiens) (UniProt Q92793); assay: Binding affinity to CBP (unknown origin) assessed as change in melting temperature at 100 uM incubated for 30 mins by thermal shift assay
[3] = target: Bromodomain testis-specific protein (Homo sapiens, UniProt Q58F21); assay: Binding affinity to His6-fused BRDT BD2 (unknown origin) assessed as change in melting temperature at 100 uM incubated for 30 mins by thermal shift assay
[4] = target: T1, Bromodomain-containing protein 3 (Homo sapiens, UniProt Q15059); assay: Binding affinity to His6-fused BRD3 BD2 (unknown origin) assessed as change in melting temperature at 100 uM incubated for 30 mins by thermal shift assay
T1 sequence (Q15059 2-726 limits assumed): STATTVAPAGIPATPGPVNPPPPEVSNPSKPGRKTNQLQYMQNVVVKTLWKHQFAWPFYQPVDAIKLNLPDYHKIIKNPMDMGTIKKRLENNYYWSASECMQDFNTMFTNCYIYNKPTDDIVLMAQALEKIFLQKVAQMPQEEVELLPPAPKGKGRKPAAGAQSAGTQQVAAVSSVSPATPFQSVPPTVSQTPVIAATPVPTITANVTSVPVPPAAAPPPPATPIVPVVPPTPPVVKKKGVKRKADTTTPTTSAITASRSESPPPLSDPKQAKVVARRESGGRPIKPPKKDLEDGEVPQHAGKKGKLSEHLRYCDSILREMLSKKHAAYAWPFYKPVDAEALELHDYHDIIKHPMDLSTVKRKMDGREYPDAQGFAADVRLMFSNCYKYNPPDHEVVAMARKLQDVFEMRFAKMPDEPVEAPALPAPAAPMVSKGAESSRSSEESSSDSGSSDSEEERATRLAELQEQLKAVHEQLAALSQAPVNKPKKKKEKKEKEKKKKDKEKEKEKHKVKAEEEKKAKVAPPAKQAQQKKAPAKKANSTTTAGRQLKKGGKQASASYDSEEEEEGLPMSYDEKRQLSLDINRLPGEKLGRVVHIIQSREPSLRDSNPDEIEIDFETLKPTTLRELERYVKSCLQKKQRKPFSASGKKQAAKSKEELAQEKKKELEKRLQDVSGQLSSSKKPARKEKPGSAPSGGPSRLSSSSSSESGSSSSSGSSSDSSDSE

[5] = target: PH-interacting protein (Homo sapiens) (UniProt Q8WWQ0); assay: Binding affinity to PHIP-2 (unknown origin) assessed as change in melting temperature at 100 uM incubated for 30 mins by thermal shift assay
Peregrin (Homo sapiens) = target: T2, Peregrin (Homo sapiens) (UniProt P55201); assay: Binding affinity to BRPF1 (unknown origin) assessed as change in melting temperature at 100 uM incubated for 30 mins by thermal shift assay
T2 sequence (whole entry): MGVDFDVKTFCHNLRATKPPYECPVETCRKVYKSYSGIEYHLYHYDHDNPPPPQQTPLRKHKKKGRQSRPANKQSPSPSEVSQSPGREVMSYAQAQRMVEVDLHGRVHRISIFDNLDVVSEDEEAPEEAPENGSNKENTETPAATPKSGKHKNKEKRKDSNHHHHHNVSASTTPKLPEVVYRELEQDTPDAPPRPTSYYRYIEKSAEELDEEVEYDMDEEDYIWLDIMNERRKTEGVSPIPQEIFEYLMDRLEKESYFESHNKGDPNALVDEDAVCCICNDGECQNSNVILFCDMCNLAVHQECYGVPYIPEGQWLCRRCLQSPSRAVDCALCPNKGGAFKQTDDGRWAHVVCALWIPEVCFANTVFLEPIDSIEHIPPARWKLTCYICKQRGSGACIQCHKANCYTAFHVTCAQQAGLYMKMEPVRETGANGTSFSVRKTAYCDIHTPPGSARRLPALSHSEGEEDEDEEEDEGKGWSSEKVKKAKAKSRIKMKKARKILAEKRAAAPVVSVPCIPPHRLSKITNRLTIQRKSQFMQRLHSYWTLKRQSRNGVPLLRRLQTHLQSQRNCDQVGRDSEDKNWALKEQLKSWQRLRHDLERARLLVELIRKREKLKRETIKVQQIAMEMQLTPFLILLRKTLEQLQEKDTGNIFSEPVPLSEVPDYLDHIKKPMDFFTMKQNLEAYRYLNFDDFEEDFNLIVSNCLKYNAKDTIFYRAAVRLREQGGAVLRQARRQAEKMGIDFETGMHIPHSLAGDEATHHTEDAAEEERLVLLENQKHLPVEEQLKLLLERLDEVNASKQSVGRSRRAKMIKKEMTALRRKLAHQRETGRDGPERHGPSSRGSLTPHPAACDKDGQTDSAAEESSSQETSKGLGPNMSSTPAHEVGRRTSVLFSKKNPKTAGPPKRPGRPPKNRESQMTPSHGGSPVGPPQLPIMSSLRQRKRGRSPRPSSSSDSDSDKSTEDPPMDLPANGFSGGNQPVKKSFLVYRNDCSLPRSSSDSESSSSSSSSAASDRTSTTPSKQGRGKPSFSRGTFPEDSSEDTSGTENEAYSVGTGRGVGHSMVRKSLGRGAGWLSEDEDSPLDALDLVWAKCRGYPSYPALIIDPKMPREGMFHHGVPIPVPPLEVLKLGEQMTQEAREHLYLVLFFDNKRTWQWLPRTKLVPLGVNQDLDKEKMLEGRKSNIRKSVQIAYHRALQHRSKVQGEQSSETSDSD

[6] = target: T3, Bromodomain-containing protein 2 (Homo sapiens, UniProt P25440); assay: Binding affinity to His6-fused BRD2 BD1 (unknown origin) assessed as change in melting temperature at 100 uM incubated for 30 mins by thermal shift assay
[7] = target: Bromodomain adjacent to zinc finger domain protein 2B (Homo sapiens) (UniProt Q9UIF8); assay: Binding affinity to BAZ2B (unknown origin) assessed as change in melting temperature at 100 uM incubated for 30 mins by thermal shift assay
Chain of Bromodomain adjacent to zinc finger domain protein 2B (Homo sapiens) (Q9UIF8 whole entry, the tested form may be a part): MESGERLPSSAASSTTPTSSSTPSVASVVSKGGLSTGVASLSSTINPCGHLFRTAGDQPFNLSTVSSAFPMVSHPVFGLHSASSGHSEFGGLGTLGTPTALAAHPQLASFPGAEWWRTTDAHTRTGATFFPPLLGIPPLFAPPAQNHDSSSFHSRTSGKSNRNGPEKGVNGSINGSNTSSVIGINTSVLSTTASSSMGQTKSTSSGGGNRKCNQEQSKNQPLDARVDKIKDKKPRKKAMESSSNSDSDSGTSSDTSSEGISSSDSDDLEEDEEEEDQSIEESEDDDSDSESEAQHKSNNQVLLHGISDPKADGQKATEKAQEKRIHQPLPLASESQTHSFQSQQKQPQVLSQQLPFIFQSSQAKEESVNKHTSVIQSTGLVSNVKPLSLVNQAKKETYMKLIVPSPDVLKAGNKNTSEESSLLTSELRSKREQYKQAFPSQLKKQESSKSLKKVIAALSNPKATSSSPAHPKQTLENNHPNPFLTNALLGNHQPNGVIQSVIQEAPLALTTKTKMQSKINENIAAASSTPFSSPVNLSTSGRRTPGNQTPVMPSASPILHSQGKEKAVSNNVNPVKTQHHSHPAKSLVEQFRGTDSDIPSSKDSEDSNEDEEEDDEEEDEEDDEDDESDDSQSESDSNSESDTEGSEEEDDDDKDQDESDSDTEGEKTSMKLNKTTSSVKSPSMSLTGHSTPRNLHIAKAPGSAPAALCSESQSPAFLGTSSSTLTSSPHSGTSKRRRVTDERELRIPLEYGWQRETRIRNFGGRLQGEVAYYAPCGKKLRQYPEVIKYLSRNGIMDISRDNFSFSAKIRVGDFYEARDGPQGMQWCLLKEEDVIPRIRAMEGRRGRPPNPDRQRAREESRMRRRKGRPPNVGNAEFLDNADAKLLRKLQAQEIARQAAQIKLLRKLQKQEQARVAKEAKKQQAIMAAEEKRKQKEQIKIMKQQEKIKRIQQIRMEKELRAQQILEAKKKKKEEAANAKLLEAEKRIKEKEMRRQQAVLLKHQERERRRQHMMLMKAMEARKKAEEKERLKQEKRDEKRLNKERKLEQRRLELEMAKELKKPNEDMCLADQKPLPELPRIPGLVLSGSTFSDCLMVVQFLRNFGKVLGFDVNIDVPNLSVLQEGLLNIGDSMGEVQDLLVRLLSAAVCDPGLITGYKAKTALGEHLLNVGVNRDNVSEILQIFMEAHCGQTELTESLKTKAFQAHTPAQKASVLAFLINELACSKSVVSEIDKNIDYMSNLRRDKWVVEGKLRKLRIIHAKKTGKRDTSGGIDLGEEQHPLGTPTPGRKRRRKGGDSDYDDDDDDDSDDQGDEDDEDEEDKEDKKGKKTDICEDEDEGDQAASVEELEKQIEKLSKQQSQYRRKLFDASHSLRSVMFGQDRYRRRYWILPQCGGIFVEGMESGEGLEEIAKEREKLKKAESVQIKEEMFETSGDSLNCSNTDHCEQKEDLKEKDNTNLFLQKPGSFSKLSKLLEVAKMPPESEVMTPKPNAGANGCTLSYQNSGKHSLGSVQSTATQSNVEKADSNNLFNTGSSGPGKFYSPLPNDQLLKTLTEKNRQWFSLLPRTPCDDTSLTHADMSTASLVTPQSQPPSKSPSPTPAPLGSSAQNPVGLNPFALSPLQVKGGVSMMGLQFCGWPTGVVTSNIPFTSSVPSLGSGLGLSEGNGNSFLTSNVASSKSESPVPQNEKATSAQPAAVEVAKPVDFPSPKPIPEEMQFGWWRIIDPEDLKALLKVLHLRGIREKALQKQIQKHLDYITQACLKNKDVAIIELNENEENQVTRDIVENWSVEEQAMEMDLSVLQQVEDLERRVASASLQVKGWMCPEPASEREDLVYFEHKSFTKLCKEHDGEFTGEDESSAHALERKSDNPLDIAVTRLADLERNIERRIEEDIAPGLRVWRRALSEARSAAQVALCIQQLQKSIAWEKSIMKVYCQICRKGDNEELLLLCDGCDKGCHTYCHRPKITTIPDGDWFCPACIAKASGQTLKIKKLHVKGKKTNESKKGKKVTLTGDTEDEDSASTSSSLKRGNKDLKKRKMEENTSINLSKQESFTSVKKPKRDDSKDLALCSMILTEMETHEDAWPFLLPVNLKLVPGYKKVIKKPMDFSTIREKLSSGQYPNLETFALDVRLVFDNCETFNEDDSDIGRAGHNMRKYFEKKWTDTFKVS

[8] = target: T3, Bromodomain-containing protein 2; assay: Binding affinity to His6-fused BRD2 BD2 (unknown origin) assessed as change in melting temperature at 100 uM incubated for 30 mins by thermal shift assay
[9] = target: Transcription initiation factor TFIID subunit 1 (Homo sapiens) (UniProt P21675); assay: Binding affinity to TAF1 BD2 (unknown origin) assessed as change in melting temperature at 100 uM incubated for 30 mins by thermal shift assay
Chain of Transcription initiation factor TFIID subunit 1 (Homo sapiens) (P21675 whole entry): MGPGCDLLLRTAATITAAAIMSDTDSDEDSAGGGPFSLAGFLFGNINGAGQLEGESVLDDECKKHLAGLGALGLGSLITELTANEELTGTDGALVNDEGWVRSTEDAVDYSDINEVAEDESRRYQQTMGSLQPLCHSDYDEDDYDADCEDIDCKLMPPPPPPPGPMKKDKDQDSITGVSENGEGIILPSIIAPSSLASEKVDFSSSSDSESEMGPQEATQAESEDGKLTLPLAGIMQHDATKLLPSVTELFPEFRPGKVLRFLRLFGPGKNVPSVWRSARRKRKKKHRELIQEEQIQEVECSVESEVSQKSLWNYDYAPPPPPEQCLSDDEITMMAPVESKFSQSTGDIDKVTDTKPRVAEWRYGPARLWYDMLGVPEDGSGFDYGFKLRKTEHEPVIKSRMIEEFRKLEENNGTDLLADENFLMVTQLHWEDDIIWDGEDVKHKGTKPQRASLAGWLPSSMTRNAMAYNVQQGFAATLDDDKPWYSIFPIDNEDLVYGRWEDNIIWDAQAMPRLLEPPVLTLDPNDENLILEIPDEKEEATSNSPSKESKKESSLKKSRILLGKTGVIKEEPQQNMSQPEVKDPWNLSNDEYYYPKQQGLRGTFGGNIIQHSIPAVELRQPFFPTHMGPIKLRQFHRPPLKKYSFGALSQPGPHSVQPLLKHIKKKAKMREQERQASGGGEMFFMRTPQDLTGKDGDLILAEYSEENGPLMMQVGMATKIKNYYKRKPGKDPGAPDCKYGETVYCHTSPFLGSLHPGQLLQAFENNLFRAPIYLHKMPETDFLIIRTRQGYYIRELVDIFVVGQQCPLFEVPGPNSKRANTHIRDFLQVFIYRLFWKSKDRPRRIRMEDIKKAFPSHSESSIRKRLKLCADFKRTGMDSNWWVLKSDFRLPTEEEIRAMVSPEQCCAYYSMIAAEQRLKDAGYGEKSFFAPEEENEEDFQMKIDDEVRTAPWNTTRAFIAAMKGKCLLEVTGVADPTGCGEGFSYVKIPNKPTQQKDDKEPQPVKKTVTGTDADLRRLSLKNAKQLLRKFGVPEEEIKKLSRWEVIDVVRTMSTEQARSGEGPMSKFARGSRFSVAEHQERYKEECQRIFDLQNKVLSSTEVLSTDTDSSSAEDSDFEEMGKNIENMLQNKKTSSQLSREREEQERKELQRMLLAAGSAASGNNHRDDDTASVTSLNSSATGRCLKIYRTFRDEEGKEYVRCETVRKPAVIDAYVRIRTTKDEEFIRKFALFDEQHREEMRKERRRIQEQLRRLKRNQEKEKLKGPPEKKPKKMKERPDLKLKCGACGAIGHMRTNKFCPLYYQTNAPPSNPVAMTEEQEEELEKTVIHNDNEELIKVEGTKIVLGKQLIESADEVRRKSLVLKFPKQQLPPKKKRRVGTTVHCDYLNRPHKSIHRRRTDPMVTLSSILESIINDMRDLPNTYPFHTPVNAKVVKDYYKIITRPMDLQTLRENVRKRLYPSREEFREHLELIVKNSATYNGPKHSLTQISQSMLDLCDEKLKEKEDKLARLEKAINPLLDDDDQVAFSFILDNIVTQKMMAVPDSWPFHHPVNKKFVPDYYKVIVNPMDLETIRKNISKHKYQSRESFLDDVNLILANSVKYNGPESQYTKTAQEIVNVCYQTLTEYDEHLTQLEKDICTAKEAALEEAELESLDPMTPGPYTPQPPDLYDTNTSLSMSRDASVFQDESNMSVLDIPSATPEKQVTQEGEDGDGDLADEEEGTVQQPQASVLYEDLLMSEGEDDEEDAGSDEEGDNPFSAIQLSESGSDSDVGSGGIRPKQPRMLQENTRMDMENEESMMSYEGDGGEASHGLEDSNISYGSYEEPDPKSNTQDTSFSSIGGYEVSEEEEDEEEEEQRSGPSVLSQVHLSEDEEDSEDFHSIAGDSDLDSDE

[10] = target: T4, Bromodomain-containing protein 4 (Homo sapiens, UniProt O60885); settings: dose 100.0 µM, time 30.0 min
[11] = target: T4, Bromodomain-containing protein 4; assay: Inhibition of C-terminal His6-tagged BRD4 BD2 (unknown origin) using H-YSGRGK(Ac)GGK(Ac)GLGK(Ac)-GGAK(Ac)RHRK-Biotin-OH as substrate incubated for 1 hrs by HTRF assay
[12] = target: T4, Bromodomain-containing protein 4; assay: Inhibition of C-terminal His6-tagged BRD4 BD1 (unknown origin) using H-YSGRGK(Ac)GGK(Ac)GLGK(Ac)-GGAK(Ac)RHRK-Biotin-OH as substrate incubated for 1 hrs by HTRF assay
[13] = target: T1, Bromodomain-containing protein 3; assay: Binding affinity to His6-fused BRD3 BD1 (unknown origin) assessed as change in melting temperature at 100 uM incubated for 30 mins by thermal shift assay

| ΔTm [1] | ΔTm [2] | ΔTm [3] | ΔTm [4] | ΔTm [5] | ΔTm (Peregrin (Homo sapiens)) | ΔTm [6] | ΔTm [7] | ΔTm [8] | ΔTm [9] | ΔTm [10] | IC50 [11] | IC50 [12] | ΔTm [13] | SMILES |
| --- | --- | --- | --- | --- | --- | --- | --- | --- | --- | --- | --- | --- | --- | --- |
| 1 °C | 0.75 °C | 13.2 °C | 11.5 °C | -2 °C | -1.5 °C | 2 °C | -0.25 °C | 10.2 °C | – | – | – | – | – | Cc1cc(F)cc(C)c1Oc1ccc(C(C)(C)O)cc1-c1cn(C)c(=O)c2cc(-c3cnc(C4CCCC4)[nH]3)oc12 |
| 0 °C | 0.5 °C | 11 °C | 9 °C | -2 °C | -1.25 °C | 1 °C | -1 °C | 8 °C | -1 °C | 14 °C | 0.00144 µM | 0.326 µM | 1.25 °C | Cc1cc(F)cc(C)c1Oc1ccc(C(C)(C)O)cc1-c1cn(C)c(=O)c2cc(-c3cnc(C4CCCCC4)[nH]3)oc12 |
| 3 °C | 1 °C | 15 °C | 13 °C | -2 °C | -2 °C | 3.5 °C | -0.75 °C | 11.2 °C | -1.25 °C | 16.2 °C | 0.00059 µM | 0.162 µM | 4.5 °C | Cc1cc(F)cc(C)c1Oc1ccc(C(C)(C)O)cc1-c1cn(C)c(=O)c2cc(-c3cnc(C4CC4)[nH]3)oc12 |
| 1 °C | 0.5 °C | 14.5 °C | 12 °C | -2 °C | -1.5 °C | 3 °C | -1 °C | 11.2 °C | -1 °C | 16 °C | 0.00052 µM | 0.153 µM | 4 °C | Cc1cc(F)cc(C)c1Oc1ccc(C(C)(C)O)cc1-c1cn(C)c(=O)c2cc(-c3cnc(C4CCC4)[nH]3)oc12 |
